Test results published in patent US11274106B2, “Topoisomerase inhibitors with antibacterial and anticancer activity” (THE BOARD OF TRUSTEES OF THE UNIVERSITY OF ILLINOIS, priority 2017, dated 2022).
Values after ≈ are worked out from the molar mass of the structure shown.

How the values were obtained:
[1] = system: E. coli; assay: Antibacterial MIC, microbroth dilution, E. coli; assay type: cell-based
Description: (§1) To investigate this possibility, the antibacterial effects of the DNM derivatives was assessed against strains of E. coli, S. aureus, and MRSA using the microbroth dilution method (Table 2).

[2] = system: Jurkat; assay: Cell viability Alamar Blue assay, Jurkat; assay type: cell-based; settings: Homo sapiens, 72 h, Leukemia, mean ± SEM
From the text: (§2) Topoisomerase inhibitors such as DOX are used as single agent and in combination therapy to treat a wide-range of cancer types.

[3] = system: H460; assay: Antiproliferative SRB assay, H460; assay type: cell-based; settings: Homo sapiens, NCI-H460, 72 h, Lung cancer, mean ± SEM
From the text: as §2

[4] = molecular target: T1, Top1 (Homo sapiens, UniProt P11387); assay: Top1 DNA relaxation assay (pBR322); assay type: biochemical; settings: for Inhibition of Top1 relaxation: supercoiled pBR322, FIG. 3b
T1 sequence (P11387 1-765): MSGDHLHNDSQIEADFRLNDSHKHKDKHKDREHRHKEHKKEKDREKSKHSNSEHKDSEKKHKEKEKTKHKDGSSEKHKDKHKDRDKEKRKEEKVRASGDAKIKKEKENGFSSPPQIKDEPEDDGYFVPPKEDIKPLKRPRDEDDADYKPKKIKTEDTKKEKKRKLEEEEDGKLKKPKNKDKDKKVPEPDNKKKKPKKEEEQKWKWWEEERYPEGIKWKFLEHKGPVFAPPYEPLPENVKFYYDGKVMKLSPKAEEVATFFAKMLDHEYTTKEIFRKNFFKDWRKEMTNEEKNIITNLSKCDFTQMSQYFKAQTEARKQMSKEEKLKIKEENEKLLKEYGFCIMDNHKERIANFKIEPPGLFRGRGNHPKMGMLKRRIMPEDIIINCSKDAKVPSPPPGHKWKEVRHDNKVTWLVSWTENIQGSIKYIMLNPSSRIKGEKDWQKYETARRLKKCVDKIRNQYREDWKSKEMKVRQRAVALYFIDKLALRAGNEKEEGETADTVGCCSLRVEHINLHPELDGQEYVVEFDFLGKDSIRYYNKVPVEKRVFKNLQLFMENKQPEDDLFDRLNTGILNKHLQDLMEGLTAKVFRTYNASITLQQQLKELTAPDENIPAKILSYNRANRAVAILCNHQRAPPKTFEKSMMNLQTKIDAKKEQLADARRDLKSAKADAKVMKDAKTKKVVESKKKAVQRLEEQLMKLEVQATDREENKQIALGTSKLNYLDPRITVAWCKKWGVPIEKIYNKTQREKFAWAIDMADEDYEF
From the text: FIG. 3. DNM derivatives are dual Top1/Top2 inhibitors with different modes of inhibition. (a) Inhibition of decatenating ability of Top2α with increasing concentrations of ETP, 6DNM-NH3, 6DNM-Pyr, and Ph-6DNM-NH3. K, kinetoplast DNA; OC, open circular; R, relaxed. (b) Inhibition of relaxing ability of Top1 with increasing concentrations of CPT, 6DNM-NH3, 6DNM-Pyr, and Ph-6DNM-NH3. R, relaxed; S, supercoiled. (c) Detection of Top2a-DNA using the ICE Assay. Genomic DNA ([…]) of H460 cells treated with drugs (50 μM, 30 min) was applied to nitrocellulose membrane and immunoblotted for Top2a. (d) Detection of Top1-DNA adducts using ICE Assay. Same procedure as (c) using 1 μg of DNA. (e) Inhibition of ETP-induced poisoning of Top2a. H460 cells treated with indicated concentrations of inhibitor for 30 min prior to treatment with ETP (50 μM). Detection of Top2α as in (c).
To further investigate any mechanistic differences between these structurally related DNM analogues they were also evaluated against the other clinically-targeted mammalian topoisomerase, Top1, using a DNA relaxation assay in which purified Top1 relaxes supercoiled pBR322 and the two forms are separated by agarose gel electrophoresis.

[5] = molecular target: T1, Top1; assay: Top1 degradation by Western blot, MDA-MB-231; assay type: cell-based; set-up: dose or concentration left out as unconfirmed; settings: 4, and 6 hours, then 30-minute drug-free media
Description: (§3) FIG. 4. Level of Top1-degradation predicts cell line sensitivity. (a) Cells treated with 25 μM of compound for indicated times followed by a 30 minute incubation with drug-free media. Cells were lysed with RIPA and Top1 levels assessed by Western Blot. (b) Degradation of Top1 results in a right-ward shift in the dose-response curve. Effect is most pronounced in Top1-poisons (Ph-6DNM-NH3, CPT) than Top1 catalytic inhibitor (6DNM-Pyr). Cell death measured by SRB assay after 72 hour of compound exposure (n≥3 biological replicates, error bars show SEM).
(§4) This difference in mechanism of action between Ph-6DNM-NH3 and 6DNM-Pyr may provide an explanation of the differences in cell line sensitivities between the different DNM derivatives. […] This downregulation serves as a resistance mechanism and the level of Top1 degradation is correlated with reduced sensitivity to CPT. To determine if a similar mechanism is responsible for the reduced sensitivity to Ph-6DNM-NH3 and its derivatives in certain cell lines, the effects of Ph-6DNM-NH3 and 6DNM-Pyr were compared to that of CPT in […] and BT-474, two cancer cell lines known to be deficient and proficient in Top1 degradation, respectively. Cells were treated with 50 μM Ph-6DNM-NH3, 6DNM-Pyr, or CPT for 2, 4, and 6 hours. Following a 30-minute incubation with drug-free media to allow for the reversal of any Top1cc formed, cells were lysed and Top1 concentrations assessed by Western blot (FIG. 4a).

[6] = molecular target: T1, Top1; assay: Top1 degradation by Western blot, BT-474; assay type: cell-based; settings: 50 μM for 2, 4, and 6 hours, then 30-minute drug-free media
Description: as §3, §4

[7] = system: S. aureus; assay: Antibacterial MIC, microbroth dilution, S. aureus; assay type: cell-based
Description: as §1

[8] = system: panel of cancer cells; assay: Average over panel of 10 cancer cell lines; assay type: cell-based; settings: 72 hour, read-out: Average (mean) IC50 over the cell line panel
From the text: as §2

[9] = system: HOS; assay: Antiproliferative SRB assay, HOS; assay type: cell-based; settings: Homo sapiens, 72 h, Osteosarcoma, mean ± SEM
From the text: as §2

| MIC ([1]; Escherichia coli) [µg/mL] | MIC ([7]; Staphylococcus aureus) [µg/mL] | Compound | E. coli MIC [1] [µg/mL] | IC50 [2] [nM] | IC50 [3] [nM] | Fold less potent Top1 inhibitor than 6DNM-Pyr ([4]; DNA relaxation assay) | Inhibition of Top1 relaxation [4] | Top1 levels by Western blot in MDA-MB-231 [5] | Top1 levels by Western blot in BT-474 [6] | S. aureus MIC [7] [µg/mL] | IC50 [8] [nM] | IC50 [9] [nM] |
| --- | --- | --- | --- | --- | --- | --- | --- | --- | --- | --- | --- | --- |
| – | – | Cc1cc(=O)n2c3c(c4c(cc13)c1ccccc1c(=O)n4C)OCC2CN (stereo not shown) [Compound 15] | 0.25 | 290 ± 30 | 12 ± 2 | more than 20 fold | approximately equipotent to the known Top1 inhibitor camptothecin | minimal differences in Top1 relative to untreated cells | time-dependent decrease in the levels of Top1 | 1 | 164 | 17 ± 1 |
| 1 (≈ 2.64 µM) | 0.5 (≈ 1.32 µM) | Cc1cc(=O)n(C)c2c3c4c(cc12)c(C)cc(=O)n4C(CN1CCCC1)CO3 (stereo not shown) [Compound 20] | – | 20 ± 6 | 6.6 ± 0.5 | – | inhibit relaxation at submicromolar concentrations | minimal differences in Top1 relative to untreated cells | minimal effect | – | 25 | 16 ± 2 |
